{"source": "patent US20130296370A1", "about": "“COMPOSITION COMPRISING A PHOTOACTIVATABLE LARVICIDE” (UNIVERSITA DEGLI STUDI DI PADOVA, priority 2010, published 2013)", "tested_on": "An. stephensi", "assay": "Laboratory-scale tray larvicide test", "type": "in vivo", "conditions": "carrier mouse food; 6 mg per tray; loading concentration 0.5 μM; fluorescent lamp", "procedure": "Laboratory strains of Anopheles stephensi, M and S (Kisumu), chromosomal forms of An. gambiae, An. arabiensis and Aedes aegypti, as well as field-collected Anopheles spp. and Aedes spp. larvae were used. Laboratory mosquitoes were maintained at 28-30° C., >90% RH and a photoperiod of 12 h. Light intensity ranged between 0.5 mW/cm^2 (fluorescent lamp) and 185 mW/cm^2 (sunlight).\nC12 or C14 porphyrin solutions at 5-100 μM concentrations were pre-incubated at room temperature in the darkness with 15-60 mg of carrier (either Eudragit or ground mouse food or cat food) for 4-12 hours under gentle shaking. After incubation the solutions were filtered, and the loaded carrier was dried at room temperature or in an oven (45° C.).\nOne litre capacity, transparent plastic trays containing wells with each 500 ml water and 6-60 mg of the composition of the present invention were prepared. Batches of 60-100 L2, L3 or L4 larvae were introduced into the trays after sunset (or artificial light off). Larval mortality was evaluated the next day starting from 8.00 am, and the time required to reach at least 90% mortality was recorded. Larvae not moving or not showing an escaping response at probing were defined as dead or dying, and counted together (Tables 2 and 3). Pupae occasionally formed throughout the irradiation time were discarded and excluded from the evaluation. An equal number of batches of larvae prepared in the same way were kept in continuous darkness and mortality was evaluated similarly, to assess toxicity in the dark.\nLight intensity range: 0.5-185 mW/cm^2."}
{"smiles": "CCCCCCCCCCCCCC[n+]1ccc(-c2c3nc(c(-c4cc[n+](C)cc4)c4ccc([nH]4)c(-c4cc[n+](C)cc4)c4nc(c(-c5cc[n+](C)cc5)c5ccc2[nH]5)C=C4)C=C3)cc1.Cc1ccc(S(=O)(=O)[O-])cc1.Cc1ccc(S(=O)(=O)[O-])cc1.Cc1ccc(S(=O)(=O)[O-])cc1.Cc1ccc(S(=O)(=O)[O-])cc1", "note": "[C14, meso-tri(N-methyl-pyridyl), mono(N-tetradecyl-pyridyl)porphine]", "values": [{"measurement": "Time to reach ≧90% mortality", "value": 1, "unit": "h"}]}
